Reference: patent US10849339B2, “Beverages containing rare sugars” (The Coca-Cola Company, priority 2013, dated 2020)

Legend:
[1] = Sweetness evaluation against sucrose solutions in citric acid buffer, two panelists (Example 8); type: in vivo, human
Description: The sweetness level of D-tagatose and FEMA GRAS FLAVOR 4701 was evaluated against 5%, 6%, and 7% sucrose solutions. All solutions were made in citric acid/potassium citrate buffer Beverages were made and chilled at 4° C. before tasting. Two panelists evaluated the beverages. Bottles were removed from the refrigerator and about 20 ml of beverage poured in 2 oz-plastic cups. Mineral water was given to panelists for palate rinsing before tasting and between tasting different samples. Unsalted crackers were also given.

[2] = Sweetness evaluation against sucrose solutions in citric acid buffer, three panelists (Example 6); type: in vivo, human; conditions: D-psicose (5% SE) in citric acid buffer
[3] = Sweetness evaluation against sucrose solutions in citric acid buffer, two panelists (Example 5); type: in vivo, human
Description: First, the sweetness level of 2,4-dihydroxybenzoic acid was evaluated against three solutions of 1%, 2%, and 3% sucrose. Second, the sweetness level of a solution containing D-psicose and 500 ppm 2,4-dihydroxybenzoic acid was evaluated against 5%, 6.5%, and 7% sucrose solutions. All solutions were made in citric acid/potassium citrate buffer.
(§1) Beverages were kept in the refrigerator overnight and tasted cold the following day. Two panelists evaluated the beverages. Bottles were removed from the refrigerator and about 20 ml of beverage poured in 2 oz-plastic cups. Mineral water was given for palate rinsing before tasting and between tasting different samples. Unsalted crackers were also given.

[4] = Sucrose equivalence of D-psicose (background statement); type: in vivo, human; conditions: 2% (w/w) in a citric acid/potassium citrate matrix
From the text: The sweetness of a non-sucrose sweetener can be measured against a sucrose reference by determining the non-sucrose sweetener's sucrose equivalence. Typically, taste panelists are trained to detect sweetness of reference sucrose solutions containing between 1-15% sucrose (w/v). Other non-sucrose sweeteners are then tasted at a series of dilutions to determine the concentration of the non-sucrose sweetener that is as sweet as a given percent sucrose reference. For example, if a 1% solution of a sweetener is as sweet as a 10% sucrose solution, then the sweetener is said to be 10 times as potent as sucrose, and has 10% sucrose equivalence.

[5] = Sweetness evaluation against sucrose solutions in citric acid buffer (Example 7); type: in vivo, human
Description: 4-Amino-5-(cyclohexyloxy)-2-methylquinoline-3-carboxylic acid was evaluated at 30 ppm. First, the sweetness level of the compound was evaluated against three solutions of 1%, 1.5%, and 2% sucrose. Second, the sweetness level of a solution containing D-psicose and 30 ppm amino-5-(cyclohexyloxy)-2-methylquinoline-3-carboxylic acid was evaluated against 5%, 6%, and 7% sucrose solutions.
A solution containing a blend of sucrose and D-psicose with a total sweetness equivalent to 5.5% sucrose (3.5% sucrose and 2% SE D-psicose) was also made and evaluated for its sweetness with and without addition of 30 ppm 4-amino-5-(cyclohexyloxy)-2-methylquinoline-3-carboxylic acid. All solutions were made in citric acid/potassium citrate buffer.
as §1, with “given for thorough palate rinsing” for “given for palate rinsing”

[6] = Taste test with eight panelists, sweetness rated against 1%, 1.5% and 2% sucrose controls (Example 1); type: in vivo, human
Description: Taste tests were carried out with eight panelists. Bottles were removed from the refrigerator and about 50 ml of beverage was poured into 4 oz-plastic cups. Panelists were given mineral water to rinse their mouth before tasting and between tasting different samples. Unsalted crackers were also given to panelists to eat. Taste tests were done in two rounds: a first round in which a sample of D-psicose in citric acid/potassium citrate buffer and a sample of D-psicose and Reb-C in citric acid/potassium citrate buffer were evaluated, and a second round in which a sample of D-psicose in a lemon lime carbonated soft drink and a sample of D-psicose and Reb-C in a lemon lime carbonated soft drink were evaluated. In each round, panelists were asked to e choose the sweetest sample among the pair, then rate the sweetness level against control solutions of 1%, 1.5%, and 2% sucrose in citric acid/potassium citrate buffer.

[7] = Sweetness recognition threshold concentration by taste testing; type: in vivo, human
From the text: The term “sweetness recognition threshold concentration,” as generally used herein, is the lowest known concentration of a sweet compound that is perceivable by the human sense of taste, typically around 1.0% sucrose equivalence (1.0% SE). While the particular sweetness recognition threshold concentration between sweetness enhancers can vary, generally the concentration of sweetness enhancer is below 500 ppm, such as, for example, from about 5 ppm to about 300 ppm, from about 50 ppm to about 200 ppm or from about 100 ppm to about 200 ppm.
Generally, the sweetness enhancers may enhance or potentiate the sweet taste of sweeteners without providing any noticeable sweet taste by themselves when present at or below the sweetness recognition threshold concentration of a given sweetness enhancer; however, the sweetness enhancers may themselves provide sweet taste at concentrations above their sweetness recognition threshold concentration. The sweetness recognition threshold concentration is specific for a particular enhancer and can vary based on the beverage matrix. The sweetness recognition threshold concentration can be easily determined by taste testing increasing concentrations of a given enhancer until greater than 1.0% sucrose equivalence in a given beverage matrix is detected. […]

[8] = sucrose part of the blend; from US20130041046A; cited from earlier work

Compound: CCCNC(=O)C(C)(C)COc1cccc2c1C(N)=NS(=O)(=O)N2 [FEMA GRAS flavor 4701]
- sucrose equivalence ([1]; 15 ppm alone in citric acid buffer): less than 1.0%

Compound: O=C(CO)[C@H](O)[C@H](O)[C@H](O)CO [D-psicose]
- sweetness against 5% and 6.5% sucrose solutions [2]: 5 % sucrose
- sweetness against 5% and 6.5% sucrose solutions ([3]; D-psicose solution (5% SE), citric acid buffer): 5 % sucrose
- sucrose equivalence [4]: about 1.26%
- sweetness against 5% and 6% sucrose solutions ([5]; D-psicose (5% SE) in citric acid buffer): 5 % sucrose
- sweetness equivalence ([6]; 2% D-psicose in the absence of Rebaudioside C): 1.2 % sucrose
- detected sucrose equivalence before addition of Rebaudioside C ([6]; lemon-lime carbonated soft drink, citric acid buffer, D-psicose about 2% by weight, embodiment statement): about 1.2%

Compound: Rebaudioside C
- sweetness recognition threshold concentration ([7]; in a citric acid/potassium citrate buffer): 270 ppm
- sweetness recognition threshold concentration ([7]; in cola): about 345 ppm
- sucrose equivalence ([6]; 220 ppm in citric acid/potassium citrate buffer, alone): less than 1.0%
- detected sucrose equivalence after addition of Rebaudioside C ([6]; about 220 ppm added to lemon-lime carbonated soft drink, citric acid buffer, D-psicose about 2% by weight, embodiment statement): about 2.0%

Compound: Cc1nc2cccc(OC3CCCCC3)c2c(N)c1C(=O)O [4-amino-5-(cyclohexyloxy)-2-methylquinoline-3-carboxylic acid]
- sweetness with 30 ppm enhancer in combination with sucrose individually [8]: 7%
- sweetness with 30 ppm enhancer in combination with D-psicose individually ([5]; D-psicose part of the blend (2% SE)): 3 % SE
- increase of detected sucrose equivalence ([5]; added at or below its sweetness recognition threshold, b195 after b194 (D-psicose and sucrose), embodiment statement): about 5.0%

Compound: O=C(O)c1ccc(O)cc1O [2,4-dihydroxybenzoic acid]
- sweetness against 1%, 2% and 3% sucrose solutions ([3]; 500 ppm alone in citric acid buffer): < 1 % sucrose
- increase of detected sucrose equivalence ([3]; added at or below its sweetness recognition threshold to a beverage containing D-psicose, embodiment statement): about 1.5%

Compound: O=C(CO)[C@@H](O)[C@@H](O)[C@H](O)CO [D-tagatose]
- sweetness against 5% and 6% sucrose solutions ([1]; D-tagatose (5% SE) in citric acid buffer): 5 % sucrose
